Measured values as given in US20130296372A1, “USE OF PRO-[…] UK-2A FOR CONTROL OF SOYBEAN RUST” (DOW AGROSCIENCES LLC, priority 2012, published 2013).

System: soybean Asian rust—Phakopsora pachyrhizi (PHAKPA)
Experiment: Efficacy on soybean rust: greenhouse soybean plants sprayed, then inoculated with spore suspension
Type: in vivo, Phakopsora pachyrhizi on soybean plants
Settings: pre-inoculation; for PHAKPA Control % 14 DAA: 14 days after application; for PHAKPA Control % 12 DAA: 12 days after application
Description: Soybean plants were inoculated with an aqueous spore suspension of the fungal pathogen (soybean Asian rust—Phakopsora pachyrhizi) at 2 h and 24 h post compound application. Additionally, infected untreated plants with sporulating lesions were placed among the test pots throughout the duration of the tests. The soybean plants were propagated from seed in a greenhouse, at a density of 3 seeds per pot containing a sandy loam. The plants were sprayed at growth stage V2 to V3 (2-3 trifoliates developed) and subsequently inoculated with the pathogen at the time intervals indicated above. Following inoculation, the plants were maintained under conditions of high humidity and at 26° C. to support spore germination and host leaf colonization. Assessments were made 12-15 days after inoculation. Aliquots of a 10% SC formulation of Compound I were diluted into water to achieve spray solutions containing 25, 100 and 400 ppm of the active ingredient. The spray solutions were also supplemented with either Trycol 5941 or one of several alternative adjuvant chemistries. Treatment solutions were sprayed to run-off using a hand held sprayer.

[1] = 400 ppm Compound I + Trycol 5941 0.2 % v/v

COc1ccnc(C(=O)N[C@H]2COC(=O)[C@H](Cc3ccccc3)[C@@H](OC(=O)C(C)C)[C@H](C)OC2=O)c1OCOC(=O)C(C)C [Compound I]
PHAKPA Control % 14 DAA (25 ppm Compound I + Trycol 5941 0.2 % v/v): D (1-25) | PHAKPA Control % 14 DAA (100 ppm Compound I + Trycol 5941 0.2 % v/v): C (26-50) | PHAKPA Control % 12 DAA (400 ppm Compound I + Agbem 0.2 % v/v): B (51-75) | PHAKPA Control % 12 DAA (400 ppm Compound I + Agral 0.2 % v/v): B (51-75) | PHAKPA Control % 12 DAA (400 ppm Compound I + Aterbane 0.2 % v/v): B (51-75) | PHAKPA Control % 12 DAA (400 ppm Compound I + Joint 0.2 % v/v): A (76-100) | PHAKPA Control % 12 DAA (400 ppm Compound I + Nimbus 0.2 % v/v): A (76-100) | PHAKPA Control % 12 DAA [1]: B (51-75) | PHAKPA Control % 14 DAA [1]: A (76-100) | PHAKPA Control % 12 DAA (400 ppm Compound I + Vegetable Oil 0.2 % v/v): A (76-100)
